ChEMBL document CHEMBL1145240, “Discovery of novel conformationally constrained tropane-based biaryl and arylacetylene ligands as potent and selective norepinephrine transporter inhibitors and potential antidepressants” (Bioorg Med Chem Lett, 2005)

How the values were obtained:
[1] = target: Sodium-dependent serotonin transporter (Rattus norvegicus, UniProt P31652); assay: Inhibitory constant against reuptake of [3H]5-HT at serotonin transporter of rat […]; assay type: tissue-based
[2] = target: T1, Norepinephrine transporter (Rattus norvegicus, UniProt Q9WTR4); assay: Inhibitory constant against reuptake of [3H]NE at norepinephrine transporter of rat parietal-occipital cortex
[3] = target: Muscarinic acetylcholine receptor; assay: Inhibition of [3H]QNB binding to muscarinic receptor of rat cortex
[4] = target: Sodium-dependent dopamine transporter (Rattus norvegicus, UniProt P23977); assay: Inhibitory constant against reuptake of [3H]-DA at dopamine transporter of rat striatal membranes; assay type: cell membranes, Membrane
[5] = target: T1, Norepinephrine transporter; assay: Inhibitory constant for [3H]NE reuptake at norepinephrine transporter of rat parietal-occipital cortex

Sequence of Sodium-dependent serotonin transporter (P31652 whole entry): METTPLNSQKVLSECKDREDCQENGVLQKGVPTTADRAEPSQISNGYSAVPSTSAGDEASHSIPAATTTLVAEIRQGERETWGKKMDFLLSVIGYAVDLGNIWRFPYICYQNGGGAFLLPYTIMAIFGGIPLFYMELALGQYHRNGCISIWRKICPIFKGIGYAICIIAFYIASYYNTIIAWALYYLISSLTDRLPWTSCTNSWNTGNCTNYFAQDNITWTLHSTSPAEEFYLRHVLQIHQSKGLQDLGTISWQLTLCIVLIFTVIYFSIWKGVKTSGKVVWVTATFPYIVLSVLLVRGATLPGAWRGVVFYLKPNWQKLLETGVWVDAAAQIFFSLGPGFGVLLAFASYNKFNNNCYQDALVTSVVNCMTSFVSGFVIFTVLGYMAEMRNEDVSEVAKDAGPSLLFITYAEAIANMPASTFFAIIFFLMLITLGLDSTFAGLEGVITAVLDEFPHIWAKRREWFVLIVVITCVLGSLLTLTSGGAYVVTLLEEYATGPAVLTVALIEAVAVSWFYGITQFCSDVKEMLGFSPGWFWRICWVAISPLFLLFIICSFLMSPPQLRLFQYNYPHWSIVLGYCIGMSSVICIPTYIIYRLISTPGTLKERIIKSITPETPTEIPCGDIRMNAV
Sequence of Sodium-dependent dopamine transporter (P23977 whole entry): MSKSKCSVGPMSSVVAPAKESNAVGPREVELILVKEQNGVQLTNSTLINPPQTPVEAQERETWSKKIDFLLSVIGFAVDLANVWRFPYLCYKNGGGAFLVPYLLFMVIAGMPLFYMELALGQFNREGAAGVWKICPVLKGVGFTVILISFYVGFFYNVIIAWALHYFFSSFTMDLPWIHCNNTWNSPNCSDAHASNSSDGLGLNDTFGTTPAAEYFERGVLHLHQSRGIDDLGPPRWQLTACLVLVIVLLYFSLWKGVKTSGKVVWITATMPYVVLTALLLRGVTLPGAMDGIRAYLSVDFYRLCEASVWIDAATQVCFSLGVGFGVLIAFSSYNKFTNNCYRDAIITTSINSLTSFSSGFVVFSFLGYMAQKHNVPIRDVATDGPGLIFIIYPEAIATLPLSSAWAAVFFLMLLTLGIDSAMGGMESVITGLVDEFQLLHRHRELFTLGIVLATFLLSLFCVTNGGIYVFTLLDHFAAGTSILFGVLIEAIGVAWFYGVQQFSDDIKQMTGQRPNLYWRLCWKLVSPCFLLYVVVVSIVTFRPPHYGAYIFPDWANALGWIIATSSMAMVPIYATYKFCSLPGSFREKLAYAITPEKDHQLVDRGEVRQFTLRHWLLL
T1 sequence (Q9WTR4 whole entry): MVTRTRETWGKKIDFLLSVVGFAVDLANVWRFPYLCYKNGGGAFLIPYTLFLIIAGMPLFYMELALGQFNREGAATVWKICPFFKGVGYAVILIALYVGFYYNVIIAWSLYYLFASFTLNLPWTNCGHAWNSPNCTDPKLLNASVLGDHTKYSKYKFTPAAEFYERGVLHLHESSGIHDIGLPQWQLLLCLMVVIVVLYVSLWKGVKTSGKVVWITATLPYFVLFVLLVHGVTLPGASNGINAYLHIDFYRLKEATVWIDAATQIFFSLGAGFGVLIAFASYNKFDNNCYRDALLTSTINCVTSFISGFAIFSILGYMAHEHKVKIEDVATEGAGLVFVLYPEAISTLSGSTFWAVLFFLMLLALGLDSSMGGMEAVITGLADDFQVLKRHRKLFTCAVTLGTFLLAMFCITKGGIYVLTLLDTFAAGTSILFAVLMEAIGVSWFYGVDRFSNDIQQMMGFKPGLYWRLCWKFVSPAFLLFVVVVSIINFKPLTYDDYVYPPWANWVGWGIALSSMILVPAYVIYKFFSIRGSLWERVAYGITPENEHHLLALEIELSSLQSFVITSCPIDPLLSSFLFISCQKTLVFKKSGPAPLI

Row | SMILES | Ki [1] | Ki [2] | Ki [3] | Ki [4] | Ki [5]
1 | COC(=O)C1C2CC3CCC1N3C/C2=C\c1ccc(-c2ccc(F)cc2)cc1 (configuration not stated) | 1390 nM | 53 nM | 1060 nM | 161 nM | –
2 | COC(=O)C1C2CC3CCC1N3C/C2=C\C#Cc1cc(F)ccc1F (configuration not stated) | 215 nM | 1720 nM | > 10000 nM | > 10000 nM | –
3 | COC(=O)C1C2CC3CCC1N3C/C2=C\C#Cc1ccccc1 (configuration not stated) | 207 nM | > 10000 nM | 11900 nM | > 10000 nM | –
4 | COC(=O)C1C2CC3CCC1N3C/C2=C\C#Cc1ccc(C)c(F)c1 (configuration not stated) | 914 nM | 52 nM | > 10000 nM | 7070 nM | –
5 | COC(=O)C1C2CC[C@@H]3C[C@@H]1/C(=C/c1ccc(-c4ccc(F)c(F)c4)cc1)CN23 (some centres not stated) | 295 nM | 0.8 nM | 3400 nM | 106 nM | –
6 | COC(=O)C1C2CC3CCC1N3C/C2=C\c1ccc(-c2ccc(SC)cc2)s1 (configuration not stated) | – | – | > 10000 nM | – | –
7 | COC(=O)C1C2CC3CCC1N3C/C2=C\c1ccc(-c2ccccc2F)cc1 (configuration not stated) | 466 nM | 393 nM | > 10000 nM | 3400 nM | –
8 | COC(=O)C1C2CC3CCC1N3C/C2=C\c1ccc(-c2cccc(OC)c2)cc1 (configuration not stated) | 346 nM | 9.4 nM | 4060 nM | 114 nM | –
9 | COC(=O)C1C2CC3CCC1N3C/C2=C\C#Cc1c(F)cccc1F (configuration not stated) | 32 nM | 5.3 nM | > 10000 nM | > 10000 nM | –
10 | COC(=O)C1C2CC3CCC1N3C/C2=C\c1ccc(-c2ccc(SC)cc2)cc1 (configuration not stated) | 1080 nM | 62 nM | > 10000 nM | 1050 nM | –
11 | COC(=O)C1C2CC3CCC1N3C/C2=C\c1ccc(-c2ccsc2)s1 (configuration not stated) | 32 nM | 5.9 nM | 2140 nM | 114 nM | –
12 | COC(=O)C1C2CC3CCC1N3C/C2=C\C#Cc1ccc(F)c(F)c1 (configuration not stated) | 69 nM | 110 nM | 7090 nM | 3150 nM | –
13 | COC(=O)C1C2CC3CCC1N3C/C2=C\c1ccc(-c2cccc(F)c2)cc1 (configuration not stated) | 138 nM | 5 nM | > 10000 nM | 646 nM | –
14 | COC(=O)C1C2CC3CCC1N3C/C2=C\C#Cc1ccsc1 (configuration not stated) | 86 nM | – | 2740 nM | > 10000 nM | 22 nM
15 | COC(=O)C1C2CC3CCC1N3C/C2=C\C#Cc1cccs1 (configuration not stated) | 142 nM | 1570 nM | 13900 nM | > 10000 nM | –
16 | COC(=O)C1C2CC3CCC1N3C/C2=C\c1ccc(-c2ccccc2OC)cc1 (configuration not stated) | 1340 nM | 6.5 nM | > 10000 nM | 787 nM | –
17 | COC(=O)C1C2CC3CCC1N3C/C2=C\C#Cc1cccc(F)c1 (configuration not stated) | 317 nM | 2110 nM | 13500 nM | > 10000 nM | –
18 | COC(=O)C1C2CC[C@@H]3C[C@@H]1/C(=C/c1ccc(-c4cc(F)cc(F)c4)cc1)CN23 (some centres not stated) | 1.2 nM | 1.3 nM | 2830 nM | 228 nM | –
19 | COC(=O)C1C2CC3CCC1N3C/C2=C\C#Cc1ccc(F)cc1 (configuration not stated) | 17 nM | 104 nM | 15100 nM | > 10000 nM | –
20 | COC(=O)C1C2CC3CCC1N3C/C2=C\c1ccc(-c2cccc(C(F)(F)F)c2)cc1 (configuration not stated) | 1170 nM | 8.8 nM | 7060 nM | 556 nM | –
